Assay results: ChEMBL document CHEMBL2021793, “Synthesis, biological evaluation and structure-activity relationships of glycyrrhetinic acid derivatives as novel anti-hepatitis B virus agents” (Bioorg Med Chem Lett, 2012)

How the values were obtained:
Hepatitis B virus [1] = assay: Antiviral activity against Hepatitis B virus infected in human HepG2(2.2.15) cells assessed as reduction in hepatitis B surface antigen release; format: functional, organism-based
Hepatitis B virus [2] = assay: Antiviral activity against Hepatitis B virus infected in human HepG2(2.2.15) cells assessed as reduction in viral DNA replication; format: functional, organism-based
Hepatitis B virus [3] = assay: Antiviral activity against Hepatitis B virus infected in human HepG2(2.2.15) cells assessed as reduction in hepatitis B e-antigen release; format: functional, organism-based
[4] = Selectivity index, ratio of CC50 for human HepG2(2.2.15) cells to IC50 for HBV by viral DNA replication detection assay; format: functional
[5] = Cytotoxicity against human HepG2(2.2.15) cells; format: cell-based

Question: With `CC1(C)[C@@H](O)CC[C@]2(C)[C@H]3C(=O)C=C4[C@@H]5C[C@@](C)(C(=O)OCCCCCCO)CC[C@]5(C)CC[C@@]4(C)[C@]3(C)CC[C@@H]12` as the compound, how does the IC50 (Hepatitis B virus [1]) read?
Answer: 129 µM

Question: What about the IC50 (Hepatitis B virus [2]) of the same compound?
Answer: 47.7 µM

Question: What about the IC50 (Hepatitis B virus [3]) of the same compound?
Answer: > 1250 µM

Question: What about the “Ratio CC50/IC50” value [4] of the same compound?
Answer: 1.4

Question: What about the CC50 [5] of the same compound?
Answer: 67.3 µM

Question: Which results are given for `CC1(C)[C@@H](O)CC[C@]2(C)[C@H]3C(=O)C=C4[C@@H]5C[C@@](C)(C(=O)OCc6cccc7cccnc67)CC[C@]5(C)CC[C@@]4(C)[C@]3(C)CC[C@@H]12`?
Answer: IC50 (Hepatitis B virus [1]): > 1700 µM; IC50 (Hepatitis B virus [2]): 15.3 µM; IC50 (Hepatitis B virus [3]): > 1700 µM; Ratio CC50/IC50 [4]: >111; CC50 [5]: > 1700 µM

Question: For `CC1(C)[C@@H](O)CC[C@]2(C)[C@H]3C(=O)C=C4[C@@H]5C[C@@](C)(C(=O)OCc6ccccc6)CC[C@]5(C)CC[C@@]4(C)[C@]3(C)CC[C@@H]12`, which IC50 (Hepatitis B virus [1]) is on record?
Answer: > 2010 µM

Question: And the IC50 (Hepatitis B virus [2])?
Answer: 153 µM

Question: What about the IC50 (Hepatitis B virus [3]) of the same compound?
Answer: > 2010 µM

Question: And the “Ratio CC50/IC50” value [4]?
Answer: 13.1

Question: And the CC50 [5]?
Answer: 2010 µM

Question: What does the source list for `CC(=O)O[C@H]1CC[C@]2(C)[C@H]3C(=O)C=C4[C@@H]5C[C@@](C)(C(=O)O)CC[C@]5(C)CC[C@@]4(C)[C@]3(C)CC[C@H]2C1(C)C` [ACETOXOLONE]?
Answer: IC50 (Hepatitis B virus [1]): 1000 µM; IC50 (Hepatitis B virus [2]): 121 µM; IC50 (Hepatitis B virus [3]): > 518 µM; Ratio CC50/IC50 [4]: 4.3; CC50 [5]: 518 µM

Question: Which IC50 (Hepatitis B virus [1]) does the source give for `C=CCCOC(=O)[C@@]1(C)CC[C@]2(C)CC[C@]3(C)C(=CC(=O)[C@@H]4[C@@]5(C)CC[C@H](O)C(C)(C)[C@@H]5CC[C@]43C)[C@@H]2C1` here?
Answer: > 1750 µM

Question: And the IC50 (Hepatitis B virus [2])?
Answer: 332 µM

Question: And the IC50 (Hepatitis B virus [3])?
Answer: > 1750 µM

Question: And the “Ratio CC50/IC50” value [4]?
Answer: >5.3

Question: And the CC50 [5]?
Answer: > 1750 µM

Question: For `CCOC(=O)CCCCCOC(=O)[C@@]1(C)CC[C@]2(C)CC[C@]3(C)C(=CC(=O)[C@@H]4[C@@]5(C)CC[C@H](O)C(C)(C)[C@@H]5CC[C@]43C)[C@@H]2C1`, which IC50 (Hepatitis B virus [1]) is on record?
Answer: 209 µM

Question: And the IC50 (Hepatitis B virus [2])?
Answer: 47.2 µM

Question: And the IC50 (Hepatitis B virus [3])?
Answer: > 1750 µM

Question: What about the “Ratio CC50/IC50” value [4] of the same compound?
Answer: 1.2

Question: And the CC50 [5]?
Answer: 54.7 µM

Question: Which IC50 (Hepatitis B virus [1]) does the source give for `CCOC(=O)COC(=O)[C@@]1(C)CC[C@]2(C)CC[C@]3(C)C(=CC(=O)[C@@H]4[C@@]5(C)CC[C@H](O)C(C)(C)[C@@H]5CC[C@]43C)[C@@H]2C1` here?
Answer: > 1200 µM

Question: What about the IC50 (Hepatitis B virus [2]) of the same compound?
Answer: 139 µM

Question: What about the IC50 (Hepatitis B virus [3]) of the same compound?
Answer: > 1200 µM

Question: What about the “Ratio CC50/IC50” value [4] of the same compound?
Answer: >8.7

Question: What about the CC50 [5] of the same compound?
Answer: > 1200 µM

Question: With `CC1(C)[C@@H](O)CC[C@]2(C)[C@H]3C(=O)C=C4[C@@H]5C[C@@](C)(C(=O)OCCCBr)CC[C@]5(C)CC[C@@]4(C)[C@]3(C)CC[C@@H]12` as the compound, how does the IC50 (Hepatitis B virus [1]) read?
Answer: > 1390 µM

Question: What about the IC50 (Hepatitis B virus [2]) of the same compound?
Answer: 28.6 µM

Question: What about the IC50 (Hepatitis B virus [3]) of the same compound?
Answer: > 1390 µM

Question: What about the “Ratio CC50/IC50” value [4] of the same compound?
Answer: 5.6

Question: What about the CC50 [5] of the same compound?
Answer: 160 µM

Question: Which IC50 (Hepatitis B virus [1]) does the source give for `CCOCCOC(=O)[C@@]1(C)CC[C@]2(C)CC[C@]3(C)C(=CC(=O)[C@@H]4[C@@]5(C)CC[C@H](O)C(C)(C)[C@@H]5CC[C@]43C)[C@@H]2C1` here?
Answer: 835 µM

Question: And the IC50 (Hepatitis B virus [2])?
Answer: 198 µM

Question: What about the IC50 (Hepatitis B virus [3]) of the same compound?
Answer: > 1720 µM

Question: What about the “Ratio CC50/IC50” value [4] of the same compound?
Answer: 2.7

Question: And the CC50 [5]?
Answer: 541 µM

Question: Which IC50 (Hepatitis B virus [1]) does the source give for `CC1(C)[C@@H](O)CC[C@]2(C)[C@H]3C(=O)C=C4[C@@H]5C[C@@](C)(C(=O)OC6CCC6)CC[C@]5(C)CC[C@@]4(C)[C@]3(C)CC[C@@H]12` here?
Answer: 810 µM

Question: And the IC50 (Hepatitis B virus [2])?
Answer: 89.5 µM

Question: What about the IC50 (Hepatitis B virus [3]) of the same compound?
Answer: > 1810 µM

Question: What about the “Ratio CC50/IC50” value [4] of the same compound?
Answer: 8.3

Question: And the CC50 [5]?
Answer: 742 µM

Question: Which IC50 (Hepatitis B virus [1]) does the source give for `CC1(C)[C@@H](O)CC[C@]2(C)[C@H]3C(=O)C=C4[C@@H]5C[C@@](C)(C(=O)OCc6ccc(C(F)(F)F)cc6)CC[C@]5(C)CC[C@@]4(C)[C@]3(C)CC[C@@H]12` here?
Answer: > 1370 µM

Question: And the IC50 (Hepatitis B virus [2])?
Answer: 5.36 µM

Question: What about the IC50 (Hepatitis B virus [3]) of the same compound?
Answer: > 1370 µM

Question: What about the “Ratio CC50/IC50” value [4] of the same compound?
Answer: >255.9

Question: What about the CC50 [5] of the same compound?
Answer: > 1370 µM

Question: For `CC1(C)[C@@H](O)CC[C@]2(C)[C@H]3C(=O)C=C4[C@@H]5C[C@@](C)(C(=O)OCc6cccnc6)CC[C@]5(C)CC[C@@]4(C)[C@]3(C)CC[C@@H]12`, which IC50 (Hepatitis B virus [1]) is on record?
Answer: 1070 µM

Question: What about the IC50 (Hepatitis B virus [2]) of the same compound?
Answer: 171 µM

Question: What about the IC50 (Hepatitis B virus [3]) of the same compound?
Answer: > 1360 µM

Question: And the “Ratio CC50/IC50” value [4]?
Answer: 1.9

Question: And the CC50 [5]?
Answer: 321 µM

Question: For `CC1(C)[C@@H](O)CC[C@]2(C)[C@H]3C(=O)C=C4[C@@H]5C[C@@](C)(C(=O)OCc6cccc(Cl)c6)CC[C@]5(C)CC[C@@]4(C)[C@]3(C)CC[C@@H]12`, which IC50 (Hepatitis B virus [1]) is on record?
Answer: > 1850 µM

Question: And the IC50 (Hepatitis B virus [2])?
Answer: 529 µM

Question: What about the IC50 (Hepatitis B virus [3]) of the same compound?
Answer: > 1850 µM

Question: And the “Ratio CC50/IC50” value [4]?
Answer: >3.5

Question: And the CC50 [5]?
Answer: > 1850 µM
